Consider 40 molecules from patent publication US11440909B2, “10H-phenothiazine ferroptosis inhibitor as well as the preparative method and the use thereof” (CHENGDU HENGHAO INVESTMENT CO. LIMITED, priority 2018, dated 2022).

In this assay the test system is fibrosarcoma cell line HT1080. Nature of the assay: Ferroptosis screening model (MTT method), Erastin-induced ferroptosis. Type of assay: cell-based, human. As to conditions: HT1080, ferroptosis inducer Erastin, 72 h, average of three tests, read-out: EC50. The procedure, abridged:
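HT1080 cells adhered 24 h, then received compound plus Erastin ([…] final) for 72 h at 37 °C, 5% CO2, in triplicate. Viability by MTT with SDS solubilisation, absorbance at 570 nm; inhibition of ferroptosis fitted to give EC50.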
Background: Formazan colour is commonly taken as a measure of viable cells.

SMILES strings stand for the structures. Like-named read-outs stand apart in the source and are kept apart here.

Usually EC50 stands for the midpoint of the concentration-response curve. On to `C=C(c1ccc(S(=O)(=O)NC2CCC2)cc1)c1ccc2c(c1)Nc1ccccc1S2` [Compound B58, 4-(1-(10H-phenothiazin-2-yl)ethenyl)-N-cyclobutylbenzenesulfonamide], for which the EC50 (Homo sapiens, HT-1080, 72 h) is 0.066 µM.
As for `C=C(c1ccc(S(=O)(=O)NC2CCN(C)CC2)cc1)c1ccc2c(c1)Nc1ccccc1S2` [Compound B59, 4-(1-(10H-phenothiazin-2-yl)ethenyl)-N-(1-methylpiperidin-4-yl)Benzenesulfonamide], the EC50 (Homo sapiens, HT-1080, 72 h) was 0.0002 µM.
On the same count and under the same terms, with `CC(c1ccc2c(c1)Nc1ccccc1S2)S(=O)(=O)N1CCOCC1` (stereo not shown) [Compound C1, 4-((1-(10H-phenothiazin-2-yl)ethyl)sulfonyl)morpholine] the figure was 0.068 µM; with `CC(c1ccc2c(c1)Nc1ccccc1S2)S(=O)(=O)N1CCN(C)CC1` (stereo not shown) [Compound C2, 2-(1-((4-methylpiperazin-1-yl)sulfonyl)ethyl)-10H-phenothiazine], 0.034 µM.
For `CC(c1ccc2c(c1)Nc1ccccc1S2)S(=O)(=O)N1CCCN(C)CC1` (stereo not shown) [Compound C3, 2-(1-((4-methyl-1,4-homopiperazin-1-yl)sulfonyl)ethyl)-10H-phenothiazine], the EC50 (Homo sapiens, HT-1080, 72 h) amounted to 0.009 µM.
Still for that read-out and setting: with `CC(C)N1CCN(S(=O)(=O)C(C)c2ccc3c(c2)Nc2ccccc2S3)CC1` (stereo not shown) [Compound C4, 2-(1-((4-isopropylpiperazin-1-yl)sulfonyl)ethyl)-10H-phenothiazine] the figure was 0.029 µM; with `CC(c1ccc2c(c1)Nc1ccccc1S2)S(=O)(=O)N1CCN(Cc2ccc3c(c2)OCO3)CC1` (stereo not shown) [Compound C5, 2-(1-((4-(benzo[d][1,3]dioxa-5-ylmethyl)piperazin-1-yl)sulfonyl)ethyl)-10H-phenothiazine], 0.035 µM.
Same read-out and setting: with `CC(c1ccc2c(c1)Nc1ccccc1S2)S(=O)(=O)N1CCN(CC(=O)N2CCCC2)CC1` (stereo not shown) [Compound C6, 2-(4-((1-(10H-phenothiazin-2-yl)ethyl)sulfonyl)piperazin-1-yl)-1-(pyrrolin-1-yl)-1-ethanone] the figure was 0.185 µM.
On the same count and under the same terms, with `CC(c1ccc2c(c1)Nc1ccccc1S2)S(=O)(=O)N1CCN(CCCN(C)C)CC1` (stereo not shown) [Compound C7, 3-(4-((1-(10H-phenothiazin-2-yl)ethyl)sulfonyl)piperazin-1-yl)-N,N-dimethylpropan-1-amine] the figure was 0.046 µM.
Take `CC(c1ccc2c(c1)Nc1ccccc1S2)S(=O)(=O)N1C2CCC1CC(O)C2` (stereo not shown) [Compound C8, 8-((1-(10H-phenothiazin-2-yl)ethyl)sulfonyl)-8-azabicyclo[3.2.1]-3-octanol]: for the setting “Homo sapiens, HT-1080, 72 h”, the EC50 was found to be 0.046 µM.
Still for that read-out and setting: in the case of `CC(c1ccc2c(c1)Nc1ccccc1S2)S(=O)(=O)N1CCN(CCc2ccccc2)CC1` (stereo not shown) [Compound C9, 2-(1-((4-phenethylpiperazin-1-yl)sulfonyl)ethyl)-10H-phenothiazine] it was 0.085 µM.
Still for that read-out and setting: in the case of `CCN1CCN(S(=O)(=O)C(C)c2ccc3c(c2)Nc2ccccc2S3)CC1` (stereo not shown) [Compound C10, 2-(1-((4-ethylpiperazin-1-yl)sulfonyl)ethyl)-10H-phenothiazine] it was 0.017 µM; in that of `CC(c1ccc2c(c1)Nc1ccccc1S2)S(=O)(=O)N1CCN(C(=O)C2CCCO2)CC1` (stereo not shown) [Compound C11, (4-((1-(10H-phenothiazin-2-yl)ethyl)sulfonyl)piperazin-1-yl)(tetrahydrofuran-2-yl)ketone], 0.269 µM; in that of `CC(c1ccc2c(c1)Nc1ccccc1S2)S(=O)(=O)N1CCN(CCN2CCOCC2)CC1` (stereo not shown) [Compound C12, 4-(2-(4-((1-(10H-phenothiazin-2-yl)ethyl)sulfonyl)piperazin-1-yl)ethyl)morpholine], 0.076 µM.
For `CC(c1ccc2c(c1)Nc1ccccc1S2)S(=O)(=O)N1CCN(CCO)CC1` (stereo not shown) [Compound C13, 2-(4-((1-(10H-phenothiazin-2-yl)ethyl)sulfonyl)piperazin-1-yl)-1-ethanol], the EC50 (Homo sapiens, HT-1080, 72 h) was found to be 0.062 µM.
Regarding `CC(c1ccc2c(c1)Nc1ccccc1S2)S(=O)(=O)N1CC[C@@H](O)C1` (stereo partly shown) [Compound C14], for the setting “Homo sapiens, HT-1080, 72 h”, the EC50 was found to be 0.26 µM.
The same measure, in the same setting: with `CC(=O)N1CCN(S(=O)(=O)C(C)c2ccc3c(c2)Nc2ccccc2S3)CC1` (stereo not shown) [Compound C15, 1-(4-((1-(10H-phenothiazin-2-yl)ethyl)sulfonyl)piperazin-1-yl)-1-ethanone] the figure was 0.132 µM.
Take `CC(c1ccc2c(c1)Nc1ccccc1S2)S(=O)(=O)N1CCN(S(C)(=O)=O)CC1` (stereo not shown) [Compound C16, 2-(1-((4-(methylsulfonyl)piperazin-1-yl)sulfonyl)ethyl)-10H-phenothiazine]: the EC50 (Homo sapiens, HT-1080, 72 h) is 0.035 µM.
The same measure, in the same setting: in the case of `CC(c1ccc2c(c1)Nc1ccccc1S2)S(=O)(=O)N1CCN(c2ccncc2)CC1` (stereo not shown) [Compound C17, 2-(1-((4-(pyridin-4-yl)piperazin-1-yl)sulfonyl)ethyl)-10H-phenothiazine] it was 0.005 µM; in that of `CC(c1ccc2c(c1)Nc1ccccc1S2)S(=O)(=O)N1CCC(O)CC1` (stereo not shown) [Compound C18, 1-((1-(10H-phenothiazin-2-yl)ethyl)sulfonyl)-4-piperidinol], 0.079 µM.
For the molecule `CC(c1ccc2c(c1)Nc1ccccc1S2)S(=O)(=O)N1CCN(C(=O)c2ccc3c(c2)OCCO3)CC1` (stereo not shown) [Compound C19, (4-((1-(10H-phenothiazin-2-yl)ethyl)sulfonyl)piperazin-1-yl)(2,3-dihydrobenzo[b][1,4]dioxane-6-yl)ketone], the EC50 stood at 0.129 µM.
Regarding `CC(c1ccc2c(c1)Nc1ccccc1S2)S(=O)(=O)N1CCSCC1` (stereo not shown) [Compound C20, 2-(1-(thiomorpholinesulfonyl)ethyl)-10H-phenothiazine], the EC50 (Homo sapiens, HT-1080, 72 h) amounted to 0.031 µM.
Still for that read-out and setting: with `CC(c1ccc2c(c1)Nc1ccccc1S2)S(=O)(=O)N1CCCC1` (stereo not shown) [Compound C21] the figure was 0.257 µM.
Turning to `COc1ccccc1N1CCN(S(=O)(=O)C(C)c2ccc3c(c2)Nc2ccccc2S3)CC1` (stereo not shown) [Compound C22, 2-(1-((4-(2-methoxylphenyl)piperazin-1-yl)sulfonyl)ethyl)-10H-phenothiazine], the EC50 was determined as 0.73 µM.
As for `CCOC(=O)C1CCN(S(=O)(=O)C(C)c2ccc3c(c2)Nc2ccccc2S3)CC1` (stereo not shown) [Compound C23], under “Homo sapiens, HT-1080, 72 h”, the EC50 stood at 0.62 µM.
For `CC(c1ccc2c(c1)Nc1ccccc1S2)S(=O)(=O)N1CCN(c2ccccc2)CC1` (stereo not shown) [Compound C24, 2-(1-((4-phenylpiperazin-1-yl)sulfonyl)ethyl)-10H-phenothiazine], the EC50 came to 0.417 µM.
On to `CC(=O)N1CCCN(S(=O)(=O)C(C)c2ccc3c(c2)Nc2ccccc2S3)CC1` (stereo not shown) [Compound C25, 1-(4-((1-(10H-phenothiazin-2-yl)ethyl)sulfonyl)-1,4-homopiperazin-1-yl)-1-ethanone], for which, where the note is “Homo sapiens, HT-1080, 72 h”, the EC50 turned out to be 0.405 µM.
Consider `CC(c1ccc2c(c1)Nc1ccccc1S2)S(=O)(=O)N1CCN(C(c2ccccc2)c2ccccc2)CC1` (stereo not shown) [Compound C26, 2-(1-((4-diphenylmethylpiperazin-1-yl)sulfonyl)ethyl)-10H-phenothiazine], for which the EC50 (Homo sapiens, HT-1080, 72 h) worked out at 0.388 µM.
The same measure, in the same setting: with `CC(c1ccc2c(c1)Nc1ccccc1S2)S(=O)(=O)N1CCN(NC(=O)OC(C)(C)C)CC1` (stereo not shown) [Compound C27, t-butyl 4-((1-(10H-phenothiazin-2-yl)ethyl)sulfonyl)piperazin-1-carbamate] the figure was 0.256 µM.
Regarding `CC(c1ccc2c(c1)Nc1ccccc1S2)S(=O)(=O)N1CCN(c2ccccc2)CC1` (stereo not shown) [Compound C28, 2-(1-((4-phenylpiperazin-1-yl)sulfonyl)ethyl)-10H-phenothiazine], the EC50 was found to be 0.142 µM.
With `CC(c1ccc2c(c1)Nc1ccccc1S2)S(=O)(=O)N1CCC[C@H](NC(=O)OC(C)(C)C)C1` (stereo partly drawn) [Compound C29, t-butyl ((3S)-1-((1-(10H-phenothiazin-2-yl)ethyl)sulfonyl)piperidin-3-yl) carbamate], the EC50 (Homo sapiens, HT-1080, 72 h) is 0.228 µM.
Still for that read-out and setting: with `CC(c1ccc2c(c1)Nc1ccccc1S2)S(=O)(=O)N1CCC(O)(c2ccc(Cl)cc2)CC1` (stereo not shown) [Compound C30, 1-((1-(10H-phenothiazin-2-yl)ethyl)sulfonyl)-4-(4-chlorophenyl)-4-piperidinol] the figure was 0.095 µM; with `CC(c1ccc2c(c1)Nc1ccccc1S2)S(=O)(=O)N1CC[C@H](NC(=O)OC(C)(C)C)C1` (stereo partly drawn) [Compound C31, t-butyl ((3S)-1-((1-(10H-phenothiazin-2-yl)ethyl)sulfonyl)pyrrolin-3-yl)carbamate], 0.399 µM; with `CC(c1ccc2c(c1)Nc1ccccc1S2)S(=O)(=O)N1CCC[C@@H](NC(=O)OC(C)(C)C)C1` (stereo partly drawn) [Compound C32, t-butyl ((3R)-1-((1-(10H-phenothiazin-2-yl)ethyl)sulfonyl)piperidin-3-yl)carbamate], 0.586 µM.
On to `CC(c1ccc2c(c1)Nc1ccccc1S2)S(=O)(=O)N1CC[C@H](CNC(=O)OC(C)(C)C)C1` (stereo partly drawn) [Compound C33, t-butyl (((3R)-1-((1-(10H-phenothiazin-2-yl)ethyl)sulfonyl)pyrrolin-3-yl)methyl)carbamate], for which the EC50 was 0.327 µM.
As for `CC(c1ccc2c(c1)Nc1ccccc1S2)S(=O)(=O)N1CCN(c2ccc(F)cc2)CC1` (stereo not shown) [Compound C34, 2-(1-((4-(4-fluorophenyl)piperazin-1-yl)sulfonyl)ethyl)-10H-phenothiazine], the EC50 (Homo sapiens, HT-1080, 72 h) was found to be 0.233 µM.
Consider `CC(c1ccc2c(c1)Nc1ccccc1S2)S(=O)(=O)N1CCCC(CNC(=O)OC(C)(C)C)C1` (stereo not shown) [Compound C35, t-butyl ((1-((1-(10H-phenothiazin-2-yl)ethyl)sulfonyl)piperidin-3-yl)methyl)carbamate], for which the 50% effective concentration (EC50) (Homo sapiens, HT-1080, 72 h) was 0.342 µM.
For `CC(c1ccc2c(c1)Nc1ccccc1S2)S(=O)(=O)N1CCN(Cc2ccc(Cl)cc2)CC1` (stereo not shown) [Compound C36, 2-(1-((4-(4-chlorobenzyl)piperazin-1-yl)sulfonyl)ethyl)-10H-phenothiazine], the EC50 (Homo sapiens, HT-1080, 72 h) is 0.129 µM.
`CC(c1ccc2c(c1)Nc1ccccc1S2)S(=O)(=O)N1CCC(NC(=O)OC(C)(C)C)CC1` (stereo not shown) [Compound C37, t-butyl (1-((1-(10H-phenothiazin-2-yl)ethyl)sulfonyl)piperidin-4-yl)carbamate]: under “Homo sapiens, HT-1080, 72 h”, the concentration giving a half-maximal response (EC50) was 0.271 µM.
On the same count and under the same terms, in the case of `CC(c1ccc2c(c1)Nc1ccccc1S2)S(=O)(=O)N1CCCC(CO)C1` (stereo not shown) [Compound C38, (1-((1-(10H-phenothiazin-2-yl)ethyl)sulfonyl)piperidin-3-yl)methanol] it was 0.229 µM.
